Test results reported in PMC11609934, “Exploration and characterization of the antimalarial activity of cyclopropyl carboxamides that target the mitochondrial protein, cytochrome b” (European Journal of Medicinal Chemistry, 2024).

System: mitochondrial ETC
Assay: P. falciparum oxygen consumption rate (OCR) assay (Seahorse XFe96)
Assay type: cell-based, Plasmodium falciparum
Settings: compounds 5 μM
Method: To provide further evidence to support the cyclopropyl carboxamide series targeting cyt b, an oxygen consumption rate (OCR) assay was performed using a Seahorse XFe96 Flux Analyzer. The primary role of the mitochondria ETC is to produce ATP oxidative phosphorylation, and thus the oxygen consumption directly quantifies mitochondrial ETC activity. In this assay, malate, which is a substrate of malate quinone dehydrogenase (MQD), was added to provide a base line of oxygen consumption at approximately 50 pmol/min (Fig. 4). […] Finally, NaN3 was added to inhibit complex IV to bring the OCR back to basal levels.
Fig. 4 P. falciparum oxygen consumption rate (OCR) assay. Data represent the means and SDs of 3 technical replicates. Time points and reagent injections were as follows, 1. First 5 timepoints measured the basal level of malate-dependent OCR; 2. Compounds (5 μM) were injected independently (indicated by arrow), and OCR measured for 8-timepoints; 3. TMPD (a cytochrome c electron donor) was injected, and OCR measured for 5 time points; 4. NaN3 (a complex IV inhibitor) was then added, and OCR measured for 5 time points.
ETC Biosensor Assay. This assay was performed as previously described. Briefly, 3 × 10^8 trophozoite infected RBCs were purified using the SuperMACS II separator (Miltenyi Biotec, Germany). The trophozoite-stage parasites were released from erythrocytes by treating them with 0.05 % (w/v) pre-warmed saponin in phosphate-buffered saline (PBS) at 37 °C for 3 min. The cells were washed with pre-warmed PBS, three times. […] The cells were measured for oxygen consumption rate (OCR) using Seahorse XFe96 flux analyzer (Agilent). The OCR was assessed for five cycles of 20 s mixing, 1 min waiting, 2.5 min measuring to establish baseline OCR before any substrate injections, for eight cycles of 20 s mixing, 1 min waiting followed by 2.5 min measuring after inhibitor injection from port A and for five cycles of 20 s mixing 1 min waiting, 2.5 min measuring after TMPD, and NaN3, injections.

**Q.** Which “effect on malate-dependent oxygen consumption rate (OCR)” value does the source give for `O=C(NC1CC1)c1ccc(CN(Cc2ccc(Cl)cc2Cl)C2CC2)cc1` [W499 (2)] here?
**A.** reduced the OCR to the same level as ATQ
